According to PubChem BioAssay (NCI):
“And” between values parts separate entries of the source, which are not always exact repeats. Identical values can stand only once.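 Five compound concentrations were applied to cells in 96-well plates for 48 hours; endpoints were derived by simple linear interpolation of the resulting dose-response curve. The concentration for 50% growth inhibition is given as GI50. At the TGI there is no net growth.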

Key:
Assay in all cases: NCI-60 cell line screen, 48 h
A549 NSCLC = test system: A549 NSCLC
TK-10 renal = test system: TK-10 renal
SW-620 colon = test system: SW-620 colon
NCI-H522 lung = test system: NCI-H522 lung
786-0 renal = test system: 786-0 renal
UO-31 renal = test system: UO-31 renal
NCI-H226 lung = test system: NCI-H226 lung
BT-549 breast = test system: BT-549 breast
HOP-92 NSCLC = test system: HOP-92 NSCLC
SN12C renal = test system: SN12C renal
SNB-19 CNS = test system: SNB-19 CNS
RXF 393 renal = test system: RXF 393 renal
DU-145 prostate = test system: DU-145 prostate
IGROV1 ovarian = test system: IGROV1 ovarian
OVCAR-4 ovarian = test system: OVCAR-4 ovarian
ACHN renal = test system: ACHN renal
HCT-15 colon = test system: HCT-15 colon
HOP-62 NSCLC = test system: HOP-62 NSCLC
MDA-MB-231 breast = test system: MDA-MB-231 breast
A498 renal = test system: A498 renal
NCI-H23 lung = test system: NCI-H23 lung
K-562 leukemia = test system: K-562 leukemia
MDA-MB-435 = test system: MDA-MB-435
SF-295 CNS = test system: SF-295 CNS
MDA-N = test system: MDA-N
HCT-116 colon = test system: HCT-116 colon
CAKI-1 renal = test system: CAKI-1 renal
KM12 colon = test system: KM12 colon
MALME-3M melanoma = test system: MALME-3M melanoma
MOLT-4 leukemia = test system: MOLT-4 leukemia
COLO 205 colon = test system: COLO 205 colon
SK-MEL-5 melanoma = test system: SK-MEL-5 melanoma
OVCAR-5 ovarian = test system: OVCAR-5 ovarian
RPMI-8226 leukemia = test system: RPMI-8226 leukemia
SF-268 CNS = test system: SF-268 CNS
SNB-75 CNS = test system: SNB-75 CNS
PC-3 prostate = test system: PC-3 prostate
CCRF-CEM leukemia = test system: CCRF-CEM leukemia
SK-OV-3 ovarian = test system: SK-OV-3 ovarian
UACC-62 melanoma = test system: UACC-62 melanoma
T-47D breast = test system: T-47D breast
OVCAR-8 ovarian = test system: OVCAR-8 ovarian
HS 578T breast = test system: HS 578T breast
SR leukemia = test system: SR leukemia
NCI/ADR-RES ovarian = test system: NCI/ADR-RES ovarian
NCI-H460 lung = test system: NCI-H460 lung
MCF7 breast = test system: MCF7 breast
HCC-2998 colon = test system: HCC-2998 colon
HL-60(TB) leukemia = test system: HL-60(TB) leukemia
HT29 colon = test system: HT29 colon
EKVX NSCLC = test system: EKVX NSCLC
OVCAR-3 ovarian = test system: OVCAR-3 ovarian
SK-MEL-28 melanoma = test system: SK-MEL-28 melanoma
LOX IMVI melanoma = test system: LOX IMVI melanoma
U251 CNS = test system: U251 CNS
M14 melanoma = test system: M14 melanoma

N#Cc1c(-c2ccccc2)cc(-c2ccccc2)n(C2OC(CO)C(O)C(O)C2O)c1=S (stereo unspecified) gave a TGI (A549 NSCLC) of over 100 µM, a TGI (TK-10 renal) of over 100 µM and a TGI (SW-620 colon) of over 100 µM. The GI50 (NCI-H522 lung) was 17.1 µM and 38.9 µM, the TGI (NCI-H522 lung) was 35.6 µM and > 100 µM and the TGI (786-0 renal) was over 100 µM. For the same molecule, the TGI (UO-31 renal) was over 100 µM, the GI50 (NCI-H226 lung) was 22.3 µM and 69.8 µM and the TGI (NCI-H226 lung) was 49.1 µM and > 100 µM. For the same molecule, the TGI (BT-549 breast) was 80.6 µM and > 100 µM, the GI50 (HOP-92 NSCLC) was 46.6 µM and > 100 µM and the TGI (HOP-92 NSCLC) was over 100 µM. The GI50 (SN12C renal) was 36.8 µM and 84.1 µM, the TGI (SN12C renal) was over 100 µM and the TGI (SNB-19 CNS) was over 100 µM. For the same molecule, the TGI (RXF 393 renal) was over 100 µM, the GI50 (DU-145 prostate) was 42.2 µM and > 100 µM and the TGI (DU-145 prostate) was over 100 µM. For the same molecule, the TGI (IGROV1 ovarian) was over 100 µM, the GI50 (OVCAR-4 ovarian) was 37.1 µM and > 100 µM and the TGI (OVCAR-4 ovarian) was over 100 µM. For the same molecule, the GI50 (ACHN renal) was 30.7 µM and 66.6 µM, the TGI (ACHN renal) was over 100 µM and the GI50 (HCT-15 colon) was 31 µM and 80.8 µM. The TGI (HCT-15 colon) was over 100 µM, the GI50 (HOP-62 NSCLC) was 34.3 µM and 72.8 µM and the TGI (HOP-62 NSCLC) was over 100 µM. The GI50 (MDA-MB-231 breast) was 7.15 µM and 23.9 µM, the TGI (MDA-MB-231 breast) was 31.1 µM and 83 µM and the TGI (A498 renal) was 52.5 µM. For the same molecule, the TGI (NCI-H23 lung) was 58.9 µM and 89.7 µM, the GI50 (K-562 leukemia) was 13.7 µM and 29.4 µM and the TGI (K-562 leukemia) was 41.4 µM and > 100 µM. The TGI (MDA-MB-435) was 44 µM and 67.9 µM, the GI50 (SF-295 CNS) was 19.5 µM and 41.1 µM and the TGI (SF-295 CNS) was 44.4 µM and > 100 µM. For the same molecule, the TGI (MDA-N) was 60.5 µM and > 100 µM, the TGI (HCT-116 colon) was 46.9 µM and > 100 µM and the GI50 (CAKI-1 renal) was 38.1 µM and > 100 µM. The TGI (CAKI-1 renal) was over 100 µM, the TGI (KM12 colon) was over 100 µM and the GI50 (MALME-3M melanoma) was 24.9 µM and > 100 µM. The TGI (MALME-3M melanoma) was 62.5 µM and > 100 µM, the GI50 (MOLT-4 leukemia) was 11.3 µM and 23.5 µM and the TGI (MOLT-4 leukemia) was 51.7 µM and 85.8 µM. The GI50 (COLO 205 colon) was 17.9 µM and 43 µM, the TGI (COLO 205 colon) was 45.9 µM and > 100 µM and the TGI (SK-MEL-5 melanoma) was 29.1 µM and > 100 µM. The GI50 (OVCAR-5 ovarian) was 35.8 µM and > 100 µM, the TGI (OVCAR-5 ovarian) was over 100 µM and the TGI (RPMI-8226 leukemia) was 56.3 µM and > 100 µM. For the same molecule, the TGI (SF-268 CNS) was over 100 µM, the TGI (SNB-75 CNS) was over 100 µM and the TGI (PC-3 prostate) was over 100 µM. For the same molecule, the GI50 (CCRF-CEM leukemia) was 12.5 µM and 29.2 µM, the TGI (CCRF-CEM leukemia) was 57.4 µM and > 100 µM and the GI50 (SK-OV-3 ovarian) was 40.3 µM and 85 µM. For the same molecule, the TGI (SK-OV-3 ovarian) was over 100 µM, the GI50 (UACC-62 melanoma) was 15.9 µM and 35.5 µM and the TGI (UACC-62 melanoma) was 33.9 µM and > 100 µM. For the same molecule, the GI50 (T-47D breast) was 6.51 µM and 29.1 µM, the TGI (T-47D breast) was 34.5 µM and > 100 µM and the TGI (OVCAR-8 ovarian) was over 100 µM. For the same molecule, the TGI (HS 578T breast) was 64.4 µM and > 100 µM, the TGI (SR leukemia) was over 100 µM and the TGI (NCI/ADR-RES ovarian) was over 100 µM. For the same molecule, the TGI (NCI-H460 lung) was 82.8 µM and > 100 µM, the TGI (MCF7 breast) was 78 µM and > 100 µM and the GI50 (HCC-2998 colon) was 26.4 µM and 93.8 µM. The TGI (HCC-2998 colon) was 91 µM and > 100 µM, the TGI (HL-60(TB) leukemia) was over 100 µM and the TGI (HT29 colon) was 56 µM and > 100 µM. The TGI (EKVX NSCLC) was over 100 µM, the GI50 (OVCAR-3 ovarian) was 18 µM and 73 µM and the TGI (OVCAR-3 ovarian) was 34.3 µM and > 100 µM. For the same molecule, the GI50 (SK-MEL-28 melanoma) was 18.8 µM and 53.5 µM, the TGI (SK-MEL-28 melanoma) was 47.4 µM and > 100 µM and the TGI (LOX IMVI melanoma) was 37.7 µM and 92.3 µM. The TGI (U251 CNS) was 35.9 µM, the GI50 (M14 melanoma) was 25.1 µM and > 100 µM and the TGI (M14 melanoma) was 62.6 µM and > 100 µM.
